Laboratory results: ChEMBL document CHEMBL4765320, “Identification and optimization of piperine analogues as neuroprotective agents for the treatment of Parkinson's disease via the activation of Nrf2/keap1 pathway” (Eur J Med Chem, 2020)

System: PC-12
Assay: Neuroprotective activity against H2O2-induced cytotoxicity in rat PC-12 cells assessed as cell viability at 12.5 uM pretreated for 24 hrs followed by H2O2 challenge and measured after 24 hrs by MTT assay (reference value: 52.81 +/- 6%)
Type: functional
Settings: time 48 hrs, read-out: Activity

SMILES	viability at 12.5 µM
O=C(/C=C/C=C/c1ccc(N2CCOCC2)cc1)N1CCCCC1	20.2%
CC(C)(C)c1cc(O)ccc1O [E319]	70.4%
O=C(/C=C/C=C/c1ccco1)N1CCCCC1	33.3%
O=C(/C=C/c1cccs1)N1CCCCC1	50.4%
CCN(CC)C(=O)/C=C/c1ccc2c(c1)OCO2	71.7%
O=C(/C=C/C=C/c1ccc(N2CCCCC2)cc1)N1CCCCC1	18.9%
CCNC(=O)/C=C/C=C/c1ccccc1OC	74.6%
O=C(/C=C/C=C/c1ccc2c(c1)OCO2)N1CCCCC1 [PIPERINE]	55.7%
CCNC(=O)/C=C/c1ccc2c(c1)OCO2	69.7%
O=C(/C=C/c1ccc(N2CCNCC2)cc1)N1CCCCC1	72.6%
CCN(CC)C(=O)/C=C/c1cccs1	54.3%
COc1cccc(/C=C/C=C/C(=O)N2CCCCC2)c1	58.1%
O=C(/C=C/C=C/c1ccc(O)cc1)N1CCCCC1	48.4%
O=C(/C=C/c1ccc2c(c1)OCO2)N1CCCCC1 [ILEPCIMIDE]	77%
CCNC(=O)/C=C/C=C/c1ccc2c(c1)OCO2	22.3%
CCN(CC)C(=O)/C=C/C=C/c1ccc2c(c1)OCO2	31.4%
CCNC(=O)/C=C/c1cccs1	56.5%

SMILES	viability at 12.5 µM
COc1ccc(/C=C/C=C/C(=O)N2CCCCC2)cc1	26.5%
O=C(/C=C/C=C/c1ccc(-c2ccccc2)cc1)N1CCCCC1	15.2%
CCN(CC)C(=O)/C=C/C=C/c1ccc(O)cc1	67.3%
CCNC(=O)/C=C/C=C/c1ccc(O)cc1	69.1%
O=C(/C=C/C=C/c1cccs1)N1CCCCC1	57.9%
CCNC(=O)/C=C/c1ccccc1OC	68.5%
O=C(/C=C/C=C/c1ccc(N2CCCC2)cc1)N1CCCCC1	37.2%
O=C(/C=C/C=C/c1ccccc1O)N1CCCCC1	68.8%
CCNC(=O)/C=C/c1ccc(N2CCNCC2)cc1	42.7%
COc1ccccc1/C=C/C(=O)N1CCCCC1	81.3%
CCN(CC)C(=O)/C=C/c1ccc(N2CCCC2)cc1	26.1%
O=C(/C=C/c1ccc(N2CCCC2)cc1)N1CCCCC1	30.6%
CCN(CC)C(=O)/C=C/c1ccccc1OC	78.2%
CCN(CC)C(=O)/C=C/C=C/c1ccccc1OC	80.7%
O=C(/C=C/C=C/c1cccc(O)c1)N1CCCCC1	75.7%
CCN(CC)C(=O)/C=C/c1ccc(N2CCNCC2)cc1	69.1%
CCN(CC)C(=O)/C=C/C=C/c1cccn1C	67.8%
